Laboratory results taken from the kinase profiling compilation of Christmann-Franck et al. (2016).
One block for each compound: values may come before it.

Tests used:
Test in all cases: Caliper, Mobility shift assay off-chip
[1] = target: PRKCQ (human) (UniProt Q04759)
[2] = target: INSR (human) (UniProt P06213)
[3] = target: EGFR (human) (UniProt P00533)
[4] = target: FGFR1 (human) (UniProt P11362)
[5] = target: DYRK1A (human) (UniProt Q13627)
[6] = target: PRKCG (human) (UniProt P05129)
[7] = target: PRKCD (human) (UniProt Q05655)
[8] = target: MAPK12 (human) (UniProt P53778)
[9] = target: SGK3 (human) (UniProt Q96BR1)
[10] = target: MAP4K4 (human) (UniProt O95819)
[11] = target: ROCK2 (human) (UniProt O75116)
[12] = target: CHEK1 (human) (UniProt O14757)
[13] = target: IKBKB (human) (UniProt O14920)
[14] = target: CSNK1A1 (human) (UniProt P48729)
[15] = target: BMX (human) (UniProt P51813)
[16] = target: SRC (human) (UniProt P12931)
[17] = tested on: FGFR2 (human), P21802 [N549H]
[18] = target: SGK2 (human) (UniProt Q9HBY8)
[19] = target: PRKCH (human) (UniProt P24723)
[20] = target: ABL1 (human) (UniProt P00519)
[21] = target: GSK3B (human) (UniProt P49841)
[22] = target: PRKACA (human) (UniProt P17612)
[23] = target: MAPKAPK5 (human) (UniProt Q8IW41)
[24] = target: PDGFRA (human) (UniProt P16234)
[25] = target: IGF1R (human) (UniProt P08069)
[26] = target: RAF1 (human) (UniProt P04049)

IGF1R (human), sequence (P08069 whole entry, looked up): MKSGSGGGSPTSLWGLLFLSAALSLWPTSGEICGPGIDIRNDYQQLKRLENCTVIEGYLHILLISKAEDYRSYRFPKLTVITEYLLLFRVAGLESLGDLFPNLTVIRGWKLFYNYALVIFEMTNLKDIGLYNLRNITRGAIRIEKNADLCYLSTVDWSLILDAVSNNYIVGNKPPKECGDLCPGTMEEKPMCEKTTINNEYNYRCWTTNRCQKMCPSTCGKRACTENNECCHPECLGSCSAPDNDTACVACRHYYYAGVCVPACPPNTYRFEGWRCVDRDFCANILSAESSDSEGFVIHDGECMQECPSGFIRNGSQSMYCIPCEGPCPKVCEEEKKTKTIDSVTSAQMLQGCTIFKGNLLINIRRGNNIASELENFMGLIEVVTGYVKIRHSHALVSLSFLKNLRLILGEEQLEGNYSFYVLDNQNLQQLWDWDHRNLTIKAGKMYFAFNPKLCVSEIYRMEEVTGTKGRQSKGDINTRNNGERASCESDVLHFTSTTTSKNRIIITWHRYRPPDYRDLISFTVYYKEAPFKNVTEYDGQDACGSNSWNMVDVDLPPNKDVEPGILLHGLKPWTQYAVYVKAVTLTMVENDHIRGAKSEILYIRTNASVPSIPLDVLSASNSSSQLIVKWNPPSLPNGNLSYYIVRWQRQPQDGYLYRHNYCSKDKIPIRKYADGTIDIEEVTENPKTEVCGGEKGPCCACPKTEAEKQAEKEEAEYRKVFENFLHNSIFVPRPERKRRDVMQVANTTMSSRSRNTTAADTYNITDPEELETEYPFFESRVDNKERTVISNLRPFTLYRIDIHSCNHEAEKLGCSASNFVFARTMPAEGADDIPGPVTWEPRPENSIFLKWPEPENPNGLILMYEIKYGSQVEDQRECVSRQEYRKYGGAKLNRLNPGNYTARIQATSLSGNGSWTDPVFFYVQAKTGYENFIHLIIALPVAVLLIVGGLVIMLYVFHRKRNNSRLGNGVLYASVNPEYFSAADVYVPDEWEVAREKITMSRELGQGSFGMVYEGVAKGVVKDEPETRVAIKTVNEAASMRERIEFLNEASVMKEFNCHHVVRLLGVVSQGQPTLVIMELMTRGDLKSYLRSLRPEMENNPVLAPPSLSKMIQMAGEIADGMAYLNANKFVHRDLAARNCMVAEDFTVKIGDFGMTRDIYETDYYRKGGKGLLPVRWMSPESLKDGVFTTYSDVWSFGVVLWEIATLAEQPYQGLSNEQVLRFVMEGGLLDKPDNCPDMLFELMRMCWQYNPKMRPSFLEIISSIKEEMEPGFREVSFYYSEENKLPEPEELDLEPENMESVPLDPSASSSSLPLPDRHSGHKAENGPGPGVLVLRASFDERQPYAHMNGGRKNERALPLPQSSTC
MAP4K4 (human), sequence (O95819 whole entry, looked up): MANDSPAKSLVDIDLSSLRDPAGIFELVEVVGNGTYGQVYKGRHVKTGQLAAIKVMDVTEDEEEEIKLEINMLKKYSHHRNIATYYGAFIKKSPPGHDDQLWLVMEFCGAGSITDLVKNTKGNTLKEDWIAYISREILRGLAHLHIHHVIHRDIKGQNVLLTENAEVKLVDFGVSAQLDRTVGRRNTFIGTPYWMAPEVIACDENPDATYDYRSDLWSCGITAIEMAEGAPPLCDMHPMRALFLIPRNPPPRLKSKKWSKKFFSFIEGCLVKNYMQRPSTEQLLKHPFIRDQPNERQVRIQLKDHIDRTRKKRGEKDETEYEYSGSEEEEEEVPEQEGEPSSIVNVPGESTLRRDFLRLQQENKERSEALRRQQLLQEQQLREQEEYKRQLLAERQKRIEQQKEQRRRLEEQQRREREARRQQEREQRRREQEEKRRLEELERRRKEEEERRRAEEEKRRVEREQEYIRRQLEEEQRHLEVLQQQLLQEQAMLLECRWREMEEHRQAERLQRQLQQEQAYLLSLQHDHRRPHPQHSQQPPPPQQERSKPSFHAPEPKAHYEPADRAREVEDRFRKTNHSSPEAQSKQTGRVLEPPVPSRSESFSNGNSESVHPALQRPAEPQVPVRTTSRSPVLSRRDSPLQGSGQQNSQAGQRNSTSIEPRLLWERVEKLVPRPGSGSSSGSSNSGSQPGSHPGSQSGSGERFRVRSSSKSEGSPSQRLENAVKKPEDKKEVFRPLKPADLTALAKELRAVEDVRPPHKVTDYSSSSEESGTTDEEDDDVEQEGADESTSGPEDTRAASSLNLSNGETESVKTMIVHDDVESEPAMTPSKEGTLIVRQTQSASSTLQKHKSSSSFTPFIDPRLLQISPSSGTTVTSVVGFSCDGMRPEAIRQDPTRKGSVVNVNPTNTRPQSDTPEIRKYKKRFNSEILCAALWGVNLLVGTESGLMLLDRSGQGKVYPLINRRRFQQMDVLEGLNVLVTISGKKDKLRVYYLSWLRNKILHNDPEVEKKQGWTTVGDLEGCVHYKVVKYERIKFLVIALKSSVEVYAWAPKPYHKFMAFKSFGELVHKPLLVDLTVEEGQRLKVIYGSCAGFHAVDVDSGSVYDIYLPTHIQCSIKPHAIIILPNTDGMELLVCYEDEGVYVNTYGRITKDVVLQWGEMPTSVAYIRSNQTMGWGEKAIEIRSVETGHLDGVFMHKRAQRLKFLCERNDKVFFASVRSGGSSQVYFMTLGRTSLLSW
GSK3B (human), sequence (P49841 whole entry, looked up): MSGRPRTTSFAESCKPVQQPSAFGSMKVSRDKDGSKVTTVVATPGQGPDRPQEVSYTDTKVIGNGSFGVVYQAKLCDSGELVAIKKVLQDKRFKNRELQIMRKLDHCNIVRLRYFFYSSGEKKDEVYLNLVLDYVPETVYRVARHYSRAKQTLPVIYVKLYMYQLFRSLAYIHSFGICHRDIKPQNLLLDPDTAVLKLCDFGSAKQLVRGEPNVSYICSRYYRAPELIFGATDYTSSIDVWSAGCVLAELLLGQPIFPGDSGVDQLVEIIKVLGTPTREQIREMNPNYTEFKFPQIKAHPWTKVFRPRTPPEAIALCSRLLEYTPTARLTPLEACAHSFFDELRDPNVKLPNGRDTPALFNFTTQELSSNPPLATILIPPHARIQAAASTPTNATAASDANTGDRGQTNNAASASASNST
BMX (human), sequence (P51813 whole entry, looked up): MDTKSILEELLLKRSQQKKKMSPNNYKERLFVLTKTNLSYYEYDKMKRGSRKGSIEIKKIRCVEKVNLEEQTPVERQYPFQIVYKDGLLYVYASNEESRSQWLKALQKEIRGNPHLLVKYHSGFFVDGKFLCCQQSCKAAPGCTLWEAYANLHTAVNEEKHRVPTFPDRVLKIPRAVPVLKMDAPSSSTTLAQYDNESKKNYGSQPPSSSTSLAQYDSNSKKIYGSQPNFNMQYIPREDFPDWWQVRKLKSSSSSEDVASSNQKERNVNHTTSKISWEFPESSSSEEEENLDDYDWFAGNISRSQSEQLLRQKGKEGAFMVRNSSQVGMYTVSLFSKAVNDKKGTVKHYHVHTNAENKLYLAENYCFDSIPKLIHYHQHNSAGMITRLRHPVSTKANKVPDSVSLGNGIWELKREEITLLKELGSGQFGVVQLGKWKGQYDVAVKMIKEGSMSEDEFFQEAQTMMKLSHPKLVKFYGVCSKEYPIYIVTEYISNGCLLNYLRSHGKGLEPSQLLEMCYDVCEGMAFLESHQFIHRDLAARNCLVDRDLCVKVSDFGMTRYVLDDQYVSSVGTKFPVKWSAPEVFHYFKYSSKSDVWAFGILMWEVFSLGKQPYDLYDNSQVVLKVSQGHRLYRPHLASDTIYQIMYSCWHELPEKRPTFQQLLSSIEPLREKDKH
EGFR (human), sequence (P00533 whole entry, looked up): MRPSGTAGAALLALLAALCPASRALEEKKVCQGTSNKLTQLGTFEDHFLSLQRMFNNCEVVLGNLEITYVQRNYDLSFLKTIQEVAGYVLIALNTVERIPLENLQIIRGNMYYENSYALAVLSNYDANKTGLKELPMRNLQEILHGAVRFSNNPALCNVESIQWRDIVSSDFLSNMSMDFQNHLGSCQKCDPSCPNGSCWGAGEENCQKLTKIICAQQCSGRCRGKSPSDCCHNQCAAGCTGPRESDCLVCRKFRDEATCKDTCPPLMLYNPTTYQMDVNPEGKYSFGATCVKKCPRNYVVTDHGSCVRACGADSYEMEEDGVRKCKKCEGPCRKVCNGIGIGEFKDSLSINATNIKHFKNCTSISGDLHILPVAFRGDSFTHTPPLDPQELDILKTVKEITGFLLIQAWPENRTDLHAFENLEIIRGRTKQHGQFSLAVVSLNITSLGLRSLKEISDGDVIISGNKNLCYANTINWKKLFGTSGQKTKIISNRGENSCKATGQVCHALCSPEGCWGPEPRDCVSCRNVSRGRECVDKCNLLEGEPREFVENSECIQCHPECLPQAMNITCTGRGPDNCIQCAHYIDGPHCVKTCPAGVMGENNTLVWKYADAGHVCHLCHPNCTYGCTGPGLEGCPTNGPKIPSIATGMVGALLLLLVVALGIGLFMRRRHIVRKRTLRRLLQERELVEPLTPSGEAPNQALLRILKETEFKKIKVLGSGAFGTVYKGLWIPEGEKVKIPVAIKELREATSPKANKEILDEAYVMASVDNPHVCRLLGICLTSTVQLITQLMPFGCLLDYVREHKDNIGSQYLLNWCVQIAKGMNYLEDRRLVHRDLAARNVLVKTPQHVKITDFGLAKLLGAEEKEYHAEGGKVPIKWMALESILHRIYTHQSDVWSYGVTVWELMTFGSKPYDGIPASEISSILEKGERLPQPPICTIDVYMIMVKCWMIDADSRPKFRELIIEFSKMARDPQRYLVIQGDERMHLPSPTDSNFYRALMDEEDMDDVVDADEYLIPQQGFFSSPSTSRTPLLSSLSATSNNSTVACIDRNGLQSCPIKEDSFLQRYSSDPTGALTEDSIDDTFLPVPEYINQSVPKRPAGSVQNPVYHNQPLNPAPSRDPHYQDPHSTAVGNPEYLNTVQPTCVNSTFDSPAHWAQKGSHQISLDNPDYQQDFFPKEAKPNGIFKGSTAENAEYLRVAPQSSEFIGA

- inhibition ([1]; compound 0.01 µM): 3.4%
- inhibition ([1]; compound 0.1 µM): -3.8%
- inhibition ([2]; compound 0.01 µM): -1.4%
- inhibition ([2]; compound 0.1 µM): -2.5%
- inhibition ([3]; compound 0.01 µM): -19.5%
- inhibition ([3]; compound 0.1 µM): -36.5%
- inhibition ([4]; compound 0.01 µM): 3.8%
- inhibition ([4]; compound 0.1 µM): 10.7%
- inhibition ([5]; compound 0.01 µM): 7.6%
- inhibition ([5]; compound 0.1 µM): -4.3%
- inhibition ([6]; compound 0.01 µM): -3.2%
- inhibition ([6]; compound 0.1 µM): 1.8%
- inhibition ([7]; compound 0.01 µM): 11%
- inhibition ([7]; compound 0.1 µM): 2.4%
- inhibition ([8]; compound 0.01 µM): -3.3%
- inhibition ([8]; compound 0.1 µM): -4.6%
- inhibition ([9]; compound 0.01 µM): -13.2%
- inhibition ([9]; compound 0.1 µM): -7.3%
- inhibition ([10]; compound 0.01 µM): -8.5%
- inhibition ([10]; compound 0.1 µM): -10.7%
- inhibition ([11]; compound 0.01 µM): 5.8%
- inhibition ([11]; compound 0.1 µM): 8.4%
- inhibition ([12]; compound 0.01 µM): -2.8%
- inhibition ([12]; compound 0.1 µM): -6%
- inhibition ([13]; compound 0.01 µM): -0.2%
- inhibition ([13]; compound 0.1 µM): 0.6%
- inhibition ([14]; compound 0.01 µM): 1.4%
- inhibition ([14]; compound 0.1 µM): -0.5%
- inhibition ([15]; compound 0.01 µM): -12.1%
- inhibition ([15]; compound 0.1 µM): -3.8%
- inhibition ([16]; compound 0.01 µM): -3.8%
- inhibition ([16]; compound 0.1 µM): -4.2%
- inhibition ([17]; compound 0.01 µM): -4.6%
- inhibition ([17]; compound 0.1 µM): 3.3%
- inhibition ([18]; compound 0.01 µM): -4.2%
- inhibition ([18]; compound 0.1 µM): 4.7%
- inhibition ([19]; compound 0.01 µM): -4.3%
- inhibition ([19]; compound 0.1 µM): -6.9%
- inhibition ([20]; compound 0.01 µM): -1.8%
- inhibition ([20]; compound 0.1 µM): 5.5%
- inhibition ([21]; compound 0.01 µM): -1.8%
- inhibition ([21]; compound 0.1 µM): -1%
- inhibition ([22]; compound 0.01 µM): 3.2%
- inhibition ([22]; compound 0.1 µM): 0.4%
- inhibition ([23]; compound 0.01 µM): -4.7%
- inhibition ([23]; compound 0.1 µM): 1.6%
- inhibition ([24]; compound 0.01 µM): -15.7%
- inhibition ([24]; compound 0.1 µM): 4.1%
- inhibition ([25]; compound 0.01 µM): 5%
- inhibition ([25]; compound 0.1 µM): -2.7%
- inhibition ([26]; compound 0.01 µM): 1.4%
- inhibition ([26]; compound 0.1 µM): 0.6%
SMILES: O=c1c2cc(CS(=O)(=O)NCc3ccccn3)ccc2ccc2ncc(C3CCNCC3)cc12

- inhibition ([1]; compound 0.1 µM): -15.1%
- inhibition ([1]; compound 1.0 µM): 2.1%
- inhibition ([2]; compound 0.1 µM): -128%
- inhibition ([2]; compound 1.0 µM): -2%
- inhibition ([3]; compound 0.1 µM): -4.8%
- inhibition ([5]; compound 0.1 µM): 2.3%
- inhibition ([5]; compound 1.0 µM): 2.1%
- inhibition ([6]; compound 0.1 µM): 6.2%
- inhibition ([6]; compound 1.0 µM): 2.7%
- inhibition ([7]; compound 0.1 µM): -38.2%
- inhibition ([7]; compound 1.0 µM): -8.2%
- inhibition ([8]; compound 0.1 µM): -3.3%
- inhibition ([8]; compound 1.0 µM): -11.8%
- inhibition ([9]; compound 0.1 µM): 0.3%
- inhibition ([9]; compound 1.0 µM): -0.7%
- inhibition ([10]; compound 0.1 µM): 4.1%
- inhibition ([10]; compound 1.0 µM): 15.7%
- inhibition ([11]; compound 0.1 µM): 3.6%
- inhibition ([11]; compound 1.0 µM): -1.6%
- inhibition ([12]; compound 0.1 µM): 1.1%
- inhibition ([12]; compound 1.0 µM): 0.4%
- inhibition ([13]; compound 0.1 µM): 1.9%
- inhibition ([14]; compound 0.1 µM): -5%
- inhibition ([14]; compound 1.0 µM): -11%
- inhibition ([15]; compound 0.1 µM): -17.3%
- inhibition ([15]; compound 1.0 µM): -2.8%
- inhibition ([16]; compound 0.1 µM): 3.2%
- inhibition ([16]; compound 1.0 µM): 2.1%
- inhibition ([17]; compound 0.1 µM): -2.9%
- inhibition ([18]; compound 0.1 µM): -9%
- inhibition ([18]; compound 1.0 µM): -11.8%
- inhibition ([19]; compound 0.1 µM): 3.1%
- inhibition ([19]; compound 1.0 µM): 1.4%
- inhibition ([20]; compound 0.1 µM): 23.1%
- inhibition ([20]; compound 1.0 µM): 61.5%
- inhibition ([21]; compound 1.0 µM): 2%
- inhibition ([22]; compound 0.1 µM): -1.4%
- inhibition ([22]; compound 1.0 µM): 0.3%
- inhibition ([23]; compound 0.1 µM): -4.3%
- inhibition ([23]; compound 1.0 µM): -1.1%
- inhibition ([24]; compound 0.1 µM): 17.5%
- inhibition ([25]; compound 0.1 µM): 4.9%
- inhibition ([25]; compound 1.0 µM): -8.3%
- inhibition ([26]; compound 0.1 µM): 5.4%
- inhibition ([26]; compound 1.0 µM): -0.8%
SMILES: Cn1cc(-c2cnc3ccc4ccc(CS(=O)(=O)NCC5CCCCN5)cc4c(=O)c3c2)cn1 (configuration not stated)
